Laboratory results taken from ChEMBL document CHEMBL5365451, “Discovery of CVN417, a Novel Brain-Penetrant α6-Containing Nicotinic Receptor Antagonist for the Modulation of Motor Dysfunction” (J Med Chem, 2023).
Active and inactive are the calls of the source. No cut-off for these calls is given here.

Tests used:
[1] = Ratio of drug concentration in Sprague-Dawley rat brain to plasma assessed as unbound fraction at 10 mg/kg, po measured after 6 hrs by LC-MS/MS analysis; format: ADME, organism-based; settings: read-out: K(p,uu,brain)
[2] = molecular target: T1, D(4) dopamine receptor (Homo sapiens, UniProt P21917); assay: Antagonist activity at human D4 receptor; format: functional
T1 sequence (P21917 whole entry): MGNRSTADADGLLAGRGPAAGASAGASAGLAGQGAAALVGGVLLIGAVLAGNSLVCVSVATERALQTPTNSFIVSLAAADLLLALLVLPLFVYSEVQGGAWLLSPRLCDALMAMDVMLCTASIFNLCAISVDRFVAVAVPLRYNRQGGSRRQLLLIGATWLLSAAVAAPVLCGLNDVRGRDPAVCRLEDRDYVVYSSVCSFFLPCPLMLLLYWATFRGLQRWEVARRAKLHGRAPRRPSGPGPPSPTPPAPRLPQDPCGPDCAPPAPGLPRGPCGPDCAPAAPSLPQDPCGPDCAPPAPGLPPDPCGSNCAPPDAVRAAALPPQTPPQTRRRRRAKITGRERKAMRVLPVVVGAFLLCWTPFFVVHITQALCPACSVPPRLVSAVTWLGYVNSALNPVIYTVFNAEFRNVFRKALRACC

[3] = Volume of distribution at steady state in Sprague-Dawley rat at 1 mg/kg, iv by LC-MS/MS analysis; format: ADME, organism-based; settings: in vivo, read-out: Vdss
[4] = molecular target: Neuronal acetylcholine receptor; alpha4/beta2 (Homo sapiens, UniProt P17787+P43681); assay: Antagonist activity at human alpha4/beta2 nAChR expressed in HEK293 cells assessed as nicotine-induced intracellular calcium release incubated for 15 mins by FLIPR analysis; format: cell-based
Chain of Neuronal acetylcholine receptor; alpha4/beta2 (P17787 whole entry): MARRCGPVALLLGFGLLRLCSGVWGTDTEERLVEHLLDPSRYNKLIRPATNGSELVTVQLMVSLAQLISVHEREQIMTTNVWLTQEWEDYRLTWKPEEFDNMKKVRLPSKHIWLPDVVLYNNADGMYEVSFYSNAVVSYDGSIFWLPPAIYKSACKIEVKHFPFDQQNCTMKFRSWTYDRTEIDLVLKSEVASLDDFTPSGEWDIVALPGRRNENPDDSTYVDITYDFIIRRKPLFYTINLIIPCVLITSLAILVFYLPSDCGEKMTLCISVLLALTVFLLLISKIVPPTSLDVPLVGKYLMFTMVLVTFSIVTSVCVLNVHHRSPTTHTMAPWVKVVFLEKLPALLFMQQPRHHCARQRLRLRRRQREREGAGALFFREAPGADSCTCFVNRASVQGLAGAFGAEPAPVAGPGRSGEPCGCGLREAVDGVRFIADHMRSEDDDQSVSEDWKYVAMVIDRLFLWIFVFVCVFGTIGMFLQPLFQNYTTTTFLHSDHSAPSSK
Chain of Neuronal acetylcholine receptor; alpha4/beta2 (P43681 whole entry): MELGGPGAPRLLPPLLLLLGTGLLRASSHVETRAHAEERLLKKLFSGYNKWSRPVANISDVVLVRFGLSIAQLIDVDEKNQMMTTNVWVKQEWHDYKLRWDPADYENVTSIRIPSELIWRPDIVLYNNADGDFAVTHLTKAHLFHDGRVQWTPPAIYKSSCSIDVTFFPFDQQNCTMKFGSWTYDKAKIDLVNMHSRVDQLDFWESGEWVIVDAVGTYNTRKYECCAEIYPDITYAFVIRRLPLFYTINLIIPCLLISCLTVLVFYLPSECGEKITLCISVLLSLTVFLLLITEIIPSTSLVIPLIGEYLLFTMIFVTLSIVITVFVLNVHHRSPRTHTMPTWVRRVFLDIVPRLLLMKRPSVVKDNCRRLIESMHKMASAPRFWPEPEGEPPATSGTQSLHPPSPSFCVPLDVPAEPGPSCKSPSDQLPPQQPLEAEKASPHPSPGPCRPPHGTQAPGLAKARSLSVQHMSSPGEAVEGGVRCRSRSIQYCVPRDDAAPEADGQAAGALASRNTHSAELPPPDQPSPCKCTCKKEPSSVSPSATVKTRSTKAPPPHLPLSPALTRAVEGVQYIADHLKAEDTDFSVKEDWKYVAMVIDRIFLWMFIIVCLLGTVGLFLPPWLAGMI

[5] = Metabolic stability in mouse liver microsome assessed as intrinsic clearance preincubated for 60 mins followed by NADPH addition and measured after 60 mins by LC-MS/MS analysis; format: ADME; settings: liver microsomes, time 120 min, read-out: CLH
[6] = molecular target: Neuronal acetylcholine receptor subunit alpha-7 (Homo sapiens) (UniProt P36544); assay: Antagonist activity at human alpha7 nAChR at 10 uM relative to control; parameters: scale not given: the % may be the effect or the level left
Chain of Neuronal acetylcholine receptor subunit alpha-7 (Homo sapiens) (P36544 whole entry): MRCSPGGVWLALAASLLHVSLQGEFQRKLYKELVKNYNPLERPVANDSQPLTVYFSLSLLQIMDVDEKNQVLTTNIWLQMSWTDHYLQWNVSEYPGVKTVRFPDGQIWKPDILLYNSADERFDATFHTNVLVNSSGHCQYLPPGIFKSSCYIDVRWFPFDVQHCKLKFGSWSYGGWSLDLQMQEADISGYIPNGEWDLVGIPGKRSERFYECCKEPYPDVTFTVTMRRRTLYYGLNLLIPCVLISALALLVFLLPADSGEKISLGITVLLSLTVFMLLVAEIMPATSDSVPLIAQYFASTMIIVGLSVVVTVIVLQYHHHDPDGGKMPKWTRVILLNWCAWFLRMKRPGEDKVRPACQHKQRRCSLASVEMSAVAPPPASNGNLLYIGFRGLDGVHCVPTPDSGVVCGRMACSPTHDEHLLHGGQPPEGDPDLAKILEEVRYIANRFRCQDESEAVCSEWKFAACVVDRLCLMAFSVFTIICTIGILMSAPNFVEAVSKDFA

[7] = Metabolic stability in dog hepatocytes assessed as intrinsic clearance measured per 10^6 cells; format: ADME, cell-based, Canis lupus familiaris, Hepatocyte
[8] = Half life in Sprague-Dawley rat at 3 mg/kg, po by LC-MS/MS analysis; format: ADME, organism-based; settings: in vivo
[9] = Volume of distribution at steady state in Sprague-Dawley rat at 0.5 mg/kg, iv by LC-MS/MS analysis; format: ADME, organism-based; settings: in vivo, read-out: Vdss
[10] = AUC (0 to infinity) in Sprague-Dawley rat at 0.5 mg/kg, iv by LC-MS/MS analysis; format: ADME, organism-based; parameters: dose 0.5 mg/kg, route iv; settings: in vivo
[11] = molecular target: T2, D(4) dopamine receptor (Homo sapiens) (UniProt P21917); assay: Antagonist activity at human D4 receptor relative to control; format: functional; parameters: scale not given: the % may be the effect or the level left; settings: filed as antagonist
T2 sequence (whole entry): T1 sequence (P21917 whole entry)

[12] = Metabolic stability in human liver microsome assessed as intrinsic clearance preincubated for 60 mins followed by NADPH addition and measured after 60 mins by LC-MS/MS analysis; format: ADME; settings: liver microsomes, time 120 min, read-out: CLH
[13] = Cmax in Sprague-Dawley rat at 10 mg/kg, po by LC-MS/MS analysis; format: ADME, organism-based; parameters: dose 10 mg/kg, route po; settings: in vivo
[14] = Plasma protein binding in mouse assessed as unbound fraction by rapid equilibrium dialysis; format: ADME, cell-free
[15] = species on record: Mus musculus; assay: Anti-parkinson activity in C57BL6/J mouse model assessed as reduction in Ip induced DA release in striatum in presence of DHbetaE by fast-scan cyclic voltammetry analysis; format: functional, organism-based
[16] = Plasma protein binding in rat assessed as unbound fraction by rapid equilibrium dialysis; format: ADME, cell-free
[17] = Antagonist activity at human alpha6-alpha3/beta2/beta3 V273S mutant nAChR expressed in HEK293 cells assessed as nicotine-induced intracellular calcium release incubated for 15 mins by FLIPR analysis; format: cell-based; settings: HEK293, 0.25 h
[18] = Oral bioavailability in Sprague-Dawley rat at 3 mg/kg by LC-MS/MS analysis; format: ADME, organism-based; settings: in vivo
[19] = molecular target: T3, Sodium-dependent noradrenaline transporter (Homo sapiens, UniProt P23975); assay: Binding affinity to human NET relative to control
T3 sequence (P23975 whole entry): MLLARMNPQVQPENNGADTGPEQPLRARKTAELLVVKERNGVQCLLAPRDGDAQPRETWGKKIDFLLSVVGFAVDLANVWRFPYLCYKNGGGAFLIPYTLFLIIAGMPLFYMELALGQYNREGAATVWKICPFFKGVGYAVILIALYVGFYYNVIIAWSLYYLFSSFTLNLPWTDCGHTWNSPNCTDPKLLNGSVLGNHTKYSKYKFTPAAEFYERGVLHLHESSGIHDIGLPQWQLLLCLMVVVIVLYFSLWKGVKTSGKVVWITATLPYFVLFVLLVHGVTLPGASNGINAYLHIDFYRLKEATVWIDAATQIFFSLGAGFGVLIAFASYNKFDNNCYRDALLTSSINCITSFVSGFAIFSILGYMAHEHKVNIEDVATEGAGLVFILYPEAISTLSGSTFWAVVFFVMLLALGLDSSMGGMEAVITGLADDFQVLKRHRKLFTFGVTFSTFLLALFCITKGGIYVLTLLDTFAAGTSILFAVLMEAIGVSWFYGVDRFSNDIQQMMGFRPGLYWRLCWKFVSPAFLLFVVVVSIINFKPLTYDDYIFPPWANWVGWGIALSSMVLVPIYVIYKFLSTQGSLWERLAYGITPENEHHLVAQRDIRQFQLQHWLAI

[20] = Clearance in Sprague-Dawley rat at 0.5 mg/kg, iv by LC-MS/MS analysis; format: ADME, organism-based; settings: in vivo
[21] = Metabolic stability in rat liver microsome assessed as intrinsic clearance preincubated for 60 mins followed by NADPH addition and measured after 60 mins by LC-MS/MS analysis; format: ADME; settings: liver microsomes, time 120 min, read-out: CLH
[22] = species on record: Mus musculus; assay: Anti-parkinson activity in C57BL6/J mouse model assessed as reduction in 10p 50 Hz induced DA release in striatum by fast-scan cyclic voltammetry analysis; format: functional, organism-based
[23] = Plasma protein binding in human assessed as unbound fraction by rapid equilibrium dialysis; format: ADME, cell-free
[24] = molecular target: Sigma non-opioid intracellular receptor 1 (Cavia porcellus) (UniProt Q60492); assay: Agonist activity at guinea pig sigma 1 relative to control; settings: filed as agonist
Chain of Sigma non-opioid intracellular receptor 1 (Cavia porcellus) (Q60492 whole entry): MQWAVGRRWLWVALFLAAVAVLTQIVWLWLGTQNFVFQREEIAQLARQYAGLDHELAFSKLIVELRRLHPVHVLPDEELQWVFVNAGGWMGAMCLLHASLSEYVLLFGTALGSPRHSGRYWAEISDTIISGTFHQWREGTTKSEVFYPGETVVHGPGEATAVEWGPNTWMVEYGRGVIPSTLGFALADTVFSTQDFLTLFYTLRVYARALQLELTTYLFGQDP

[25] = species on record: Mus musculus; assay: Anti-parkinson activity in C57BL6/J mouse model assessed as reduction in Ip induced DA release in striatum by fast-scan cyclic voltammetry analysis; format: functional, organism-based
[26] = Half life in Sprague-Dawley rat at 10 mg/kg, po by LC-MS/MS analysis; format: ADME, organism-based; settings: in vivo
[27] = molecular target: T3, Sodium-dependent noradrenaline transporter; assay: Binding affinity to human NET
[28] = Protein binding in mouse brain assessed as unbound fraction by rapid equilibrium dialysis; format: ADME, tissue-based
[29] = species on record: Rattus norvegicus; assay: Anti-parkinson activity in Sprague-Dawley rat model assessed as decrease in spontaneous firing frequency measured after 15 mins by whole cell patch assay; format: functional, organism-based
[30] = Metabolic stability in human hepatocytes assessed as intrinsic clearance measured per 10^6 cells; format: ADME, cell-based, Hepatocyte
[31] = AUC (0 to infinity) in Sprague-Dawley rat at 10 mg/kg, po by LC-MS/MS analysis; format: ADME, organism-based; parameters: dose 10 mg/kg, route po; settings: in vivo
[32] = Oral bioavailability in Sprague-Dawley rat at 10 mg/kg by LC-MS/MS analysis; format: ADME, organism-based; settings: in vivo
[33] = species on record: Mus musculus; assay: Anti-parkinson activity in C57BL6/J mouse model assessed as reduction in 5p 50 Hz induced DA release in striatum by fast-scan cyclic voltammetry analysis; format: functional, organism-based
[34] = Drug exposure in Sprague-Dawley rat brain at 3 mg/kg, po measured for 2 hrs by LC-MS/MS analysis; format: ADME, organism-based; settings: read-out: Drug uptake
[35] = Protein binding in rat brain assessed as unbound fraction by rapid equilibrium dialysis; format: ADME, tissue-based
[36] = tested on: Brain; assay: Drug concentration in po dosed Sprague-Dawley rat brain measured after 2 hrs by LC-MS/MS analysis; format: functional, organism-based; settings: dose 3-25 mg/kg
[37] = molecular target: Neuronal acetylcholine receptor; alpha3/beta4 (Homo sapiens, UniProt P30926+P32297); assay: Antagonist activity at human alpha3/beta4 nAChR expressed in HEK293 cells assessed as nicotine-induced intracellular calcium release incubated for 15 mins by FLIPR analysis; format: cell-based
Chain of Neuronal acetylcholine receptor; alpha3/beta4 (P30926 whole entry): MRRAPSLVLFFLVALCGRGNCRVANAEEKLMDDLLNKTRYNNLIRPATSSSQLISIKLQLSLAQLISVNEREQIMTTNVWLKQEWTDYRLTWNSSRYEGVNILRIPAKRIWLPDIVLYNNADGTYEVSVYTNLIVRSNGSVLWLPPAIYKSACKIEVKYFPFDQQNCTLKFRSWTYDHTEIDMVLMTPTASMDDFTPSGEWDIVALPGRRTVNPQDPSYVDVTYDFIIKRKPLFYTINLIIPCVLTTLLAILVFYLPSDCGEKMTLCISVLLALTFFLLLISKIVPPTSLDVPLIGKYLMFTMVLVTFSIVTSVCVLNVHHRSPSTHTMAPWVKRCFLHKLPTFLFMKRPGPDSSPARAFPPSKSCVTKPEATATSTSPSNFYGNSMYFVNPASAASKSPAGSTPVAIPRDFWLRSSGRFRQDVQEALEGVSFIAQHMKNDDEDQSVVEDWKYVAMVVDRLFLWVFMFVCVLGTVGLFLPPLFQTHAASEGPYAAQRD
Chain of Neuronal acetylcholine receptor; alpha3/beta4 (P32297 whole entry): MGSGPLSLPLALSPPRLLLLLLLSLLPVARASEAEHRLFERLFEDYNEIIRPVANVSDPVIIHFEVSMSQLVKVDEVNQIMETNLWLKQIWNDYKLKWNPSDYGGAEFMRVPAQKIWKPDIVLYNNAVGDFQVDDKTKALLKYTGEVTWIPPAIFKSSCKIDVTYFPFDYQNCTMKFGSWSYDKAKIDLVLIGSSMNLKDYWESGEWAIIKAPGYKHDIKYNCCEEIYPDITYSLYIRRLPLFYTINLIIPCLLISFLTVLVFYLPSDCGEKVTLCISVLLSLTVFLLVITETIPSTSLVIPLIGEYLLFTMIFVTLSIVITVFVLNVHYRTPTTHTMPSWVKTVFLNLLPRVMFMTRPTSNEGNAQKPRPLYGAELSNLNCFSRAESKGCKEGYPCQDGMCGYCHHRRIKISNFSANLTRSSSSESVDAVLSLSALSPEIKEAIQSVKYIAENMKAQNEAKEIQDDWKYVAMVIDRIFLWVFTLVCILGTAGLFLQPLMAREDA

[38] = Metabolic stability in dog liver microsome assessed as intrinsic clearance preincubated for 60 mins followed by NADPH addition and measured after 60 mins by LC-MS/MS analysis; format: ADME, Canis lupus familiaris; settings: liver microsomes, time 120 min, read-out: CLH
[39] = Metabolic stability in mouse hepatocytes assessed as intrinsic clearance measured per 10^6 cells; format: ADME, cell-based, Hepatocyte
[40] = species on record: Rattus norvegicus; assay: Antagonist activity at rat I2 receptor relative to control; parameters: scale not given: the % may be the effect or the level left; settings: filed as antagonist
[41] = tested on: Rattus norvegicus; assay: Protection against tacrine-induced Sprague-Dawley rat tremulous jaw model assessed as decrease in tremor jaw movement at 25 mg/kg, po pretreated with compound for 90 mins followed by tacrine addition and measured after 5 mins; format: functional; parameters: scale not given: the % may be the effect or the level left; settings: time 95 min, 1.583 h
[42] = Metabolic stability in rat hepatocytes assessed as intrinsic clearance measured per 10^6 cells; format: ADME, cell-based, Hepatocyte
[43] = tested on: Rattus norvegicus; assay: Protection against tacrine-induced po dosed Sprague-Dawley rat tremulous jaw model assessed as decrease in tremor duration pretreated with compound for 90 mins followed by tacrine addition and measured after 5 mins; format: functional, organism-based; settings: dose 3-25 mg/kg, time 95.0 min
[44] = tested on: Rattus norvegicus; assay: Protection against tacrine-induced Sprague-Dawley rat tremulous jaw model assessed as decrease in tremor jaw movement at 3 to 25 mg/kg, po pretreated with compound for 90 mins followed by tacrine addition and measured after 5 mins; format: functional, organism-based; settings: dose 3-25 mg/kg, time 95.0 min
[45] = AUC (0 to infinity) in Sprague-Dawley rat at 1 mg/kg, iv by LC-MS/MS analysis; format: ADME, organism-based; parameters: dose 1 mg/kg, route iv; settings: in vivo

COc1ccc(-c2cc(C(=O)N[C@H]3CCCN(C)C3)nn2C)c(Cl)c1
Kp uu at 6 h [1]: 1.4 | IC50 [2]: 1290 nM | Vd [3]: 11.4 L/kg | IC50 [4]: 657 nM | microsomal CLint [5]: 33.3 µL/min/mg | Activity [6]: 13% | CLint [7]: 32.3 µL/min/1e6 cells | half-life [8]: 7.8 h | Vd [9]: 12.3 L/kg | AUC(0-inf) [10]: 205 ng·h/mL | Activity [11]: 90% | microsomal CLint [12]: 2.8 µL/min/mg | Cmax [13]: 350 nM | fraction unbound [14]: 0.25 | Activity [15]: Active | fraction unbound [16]: 0.202 | IC50 [17]: 86 nM | bioavailability [18]: 43.8% | Activity [19]: 62% | clearance [20]: 38.2 mL/min/kg | microsomal CLint [21]: 31.2 µL/min/mg | Activity [22]: Active | fraction unbound [23]: 0.3 | Activity [24]: 51% | Activity [25]: Active | half-life [26]: 5.9 h | IC50 [27]: 44700 nM | fraction unbound [28]: 0.053 | Activity [29]: Active | CLint [30]: 3.7 µL/min/1e6 cells | AUC(0-inf) [31]: 775 ng·h/mL | bioavailability [32]: 11% | Activity [33]: Active | concentration at 2 h [34]: 1820 nM | fraction unbound [35]: 0.068 | Drug uptake [36]: Dose-Dependent Effect | IC50 [37]: 2560 nM | microsomal CLint [38]: 27.7 µL/min/mg | CLint [39]: 25.1 µL/min/1e6 cells | Activity [40]: 84% | Activity [41]: 18.9% | CLint [42]: 20.8 µL/min/1e6 cells | Activity [43]: Dose-Dependent Effect | Activity [44]: Active | AUC [45]: 13.5 ng·h/mL
